Structures can show the parent of a compound that is named as a salt.
Tests used:
LTB4 = test: Reverse passive Arthus pleurisy assay, inflammatory mediator release: LTB4; type: in vivo, rat (male Lewis); settings: for % Inh LTB4: standard drugs; for % Inhibition of LTB4 Synthesis: 3 hours before challenge
Procedure: The compounds of the invention are further tested in the reverse passive Arthus pleurisy assay to evaluate their effectiveness in inflammatory mediator release and/or the fluid and cellular phases of an inflammatory response.
(§1) This assay is carried out as follows:
A reverse passive Arthus reaction is induced in the pleural cavity of male Lewis rats (150-200 g; fasted overnight prior to use) by the intravenous administration of bovine serum albumin (BSA; 4 mg/0.2 ml) followed 30 minutes later by the injection of rabbit anti-BSA (1 mg/0.2 ml; lyophilized IgG fraction; Organon Teknika, West Chester, Pa.) into the right pleural space under halothane anesthesia. […] Animals are sacrificed at either the time of peak eicosanoid production (i.e. 5 minutes after anti-BSA for immunoreactive TxB2 10 minutes for immunoreactive LTB4, 20 minutes for immunoreactive LTC4) or at the time of peak neutrophil infiltration (4 hours after anti-BSA) by CO2 inhalation. The pleural cavity is then exposed, the fluid exudate removed by gentle vacuum aspiration and the volume of exudate is recorded. For the determination of cellular infiltration, the pleural cavity is rinsed with 3 ml of 0.1% EDTA in sterile saline, and the recovered wash is pooled with the exudate. Cell number is determined on a model ZBI Coulter counter. For determination of eicosanoid production, undiluted pleural exudate is microfuged and the supernatant is extracted with ethanol (8-10 times volume). Extracts are either stored at -20° C., or are evaporated to dryness under a stream of N2 and reconstituted in radioimmunoassay (RIA) buffer.
Eicosanoids are quantitated by RIA according to the procedure specified by the RIA kit manufacturer (Advanced Magnetics, Cambridge, Mass.). Briefly, 100 μl of ^3 H-labeled eicosanoid and 100 μl of specific antibody are sequentially added to 100 μl of extracted pleural exudate in BGG -phosphate buffer which contains 0.01 M phosphate, 0.1% bovine gamma globulin and 0.1% sodium azide at pH 7.0. Antibody-bound eicosanoid is separated from unbound eicosanoid by the addition of 750 μl of dextran (0.4%)-coated charcoal (0.4% Norit A) containing 0.1% sodium azide. The mixture is centrifuged at 2000 RPM at 5° C. for 15 minutes to pellet the charcoal and adsorbed unbound eicosanoid. Antibody-bound labeled eicosanoid is quantitated by counting in a liquid scintillation counter, and is correlated to concentration by a standard curve.
Inflammatory cells are expressed as 10^6 cells/ml, pleural exudate is expressed as ml of fluid, and the amount of eicosanoids in the pleural cavity is expressed as ng/ml of exudate. Mean ±S.E.M. is determined for each group. Percent inhibition (% I) of cell number, exudate volume and eicosanoid production is calculated for vehicle-treated control groups, and the responses in drug-treated rats are then expressed as the mean % I of the control. […] Exp. Ther., 96, 99-113 (1949).

[1] = molecular target: T1, LTD4-induced contractions of isolated guinea pig trachea (Cavia porcellus, UniProt Q2NNR5); test: In vitro isolated guinea pig trachea assay, LTD4 antagonist activity; set-up: species or system guinea pig (male Hartley)
T1 construct: isolated guinea pig trachea; from tissue; host or cells: tracheal rings of male Hartley guinea pigs
T1 sequence (Q2NNR5 1-340): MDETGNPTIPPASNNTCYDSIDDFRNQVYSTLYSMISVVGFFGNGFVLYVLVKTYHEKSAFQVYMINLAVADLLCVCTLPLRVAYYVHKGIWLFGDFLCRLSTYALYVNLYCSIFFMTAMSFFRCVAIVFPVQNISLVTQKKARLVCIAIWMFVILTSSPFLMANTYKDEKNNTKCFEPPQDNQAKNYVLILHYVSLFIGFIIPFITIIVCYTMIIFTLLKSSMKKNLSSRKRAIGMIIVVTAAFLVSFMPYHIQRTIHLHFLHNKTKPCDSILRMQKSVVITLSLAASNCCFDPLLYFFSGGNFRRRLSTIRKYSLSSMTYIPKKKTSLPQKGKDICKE
Procedure: The LTD4 antagonist activity of the compounds of the invention is assessed in the in vitro isolated guinea pig trachea assay. This assay is carried out as follows: Male Hartley guinea pigs (350-400 g) are euthanized by a blow to the head, the neck is opened and the trachea removed. The trachea is maintained in aerated physiological salt solution, cleared of connective tissue and fat and cut into rings approximately 2 mm in width (usually containing two cartilaginous segments per ring). Two pieces of silk suture are then passed through the lumen of the tracheal ting and are tied around the cartilage, one on each side of the trachealis muscle. The tracheal ring is suspended between a glass hook and a force displacement transducer in a 10 ml organ bath for measurement of isometric tension. […] The tracheal rings are maintained at 2 g resting tension and equilibrated for 45 minutes (with frequent washing and readjustment of resting tension). The tracheal […] contracted by the addition of carbachol (3×10^-6 M), to determine tissue responsiveness and establish a reference contraction. On attainment of a stable level of contraction (approximately 30 minutes), the tissues are washed several times until baseline tension has been restored and the re-equilibrated for 30 minutes. The tissues are then incubated for 45 minutes with a test antiagonist (either 1×10^-6 M or 1×10^-5 M) or 10 μl of an appropriate solvent control (control, nontreated). One tissue in each group serves as the control. Twenty minutes prior to the construction of the LTD4 cumulative concentration-response curve, L-[…]×10^-2 M final bath concentration) is added to inhibit bioconversion of LTD4 to LTE4. Only one LTD4 concentration-response curve is constructed in each tissue. All responses to LTD4 in an individual tissue are measured as a percentage of the reference contraction of that tissue to carbachol. LTD4 antagonist activity is determined by comparison of the concentration response curves of LTD4 in the presence and absence of antagonist. Assessment of the relative rightward shift of the antagonist treated curve relative to the solvent (control) treated tissue is calculated as a concentration ratio (Eq. A) and used in subsequent calculations to derive an antagonist pKB value (Eqs. B and C). […] If a compound is found to be active and/or depress the maximal response to LTD4, then a range of concentrations of the test compound should be used generating multiple concentration ratios which would then be used to perform a Schild analysis, and determination of a pA2 value where appropriate.

[2] = system: 5-lipoxygenase in human whole blood; test: Inhibition of 5-lipoxygenase in human whole blood (LTB4); type: cell-based
Procedure: The assay of this Example measures the ability of the compounds tested to inhibit 5-lipoxygenase in human whole blood.
as §1
Blood is obtained in 50-100 ml quantities from male donors. White blood cell counts and differentials are made. Two ml of blood are placed in a 15 ml polypropylene test tube. Compounds are solubilized in dimethylsulfoxide and diluted 1:10 in 10% bovine serum albumin in phosphate buffered saline, pH 7.4 resulting in a final dimethylsulfoxide concentration of 0.1% in the blood. Then, compounds are added to the blood in a shaking water bath at 37° C. for 10 minutes prior to the addition of 30 μM calcium ionophore (A23187; Sigma). After ionophore administration, whole blood samples are mixed and incubated for 20 minutes at […] in a shaking water bath. Incubation is terminated by placing samples in an ice bath and immediately adding ethylene glycol-bis-(β-aminoethyl ether)-N,N,N',N'-tetraacetic acid (10 mM). Samples are mixed and centrifuged at 1200×g for 15 minutes at 4° C. Preparation of samples for evaluation by RIA or ELISA is carried out by the following protocol. Plasma is removed from sample tubes, placed in 15 ml polypropylene test tubes containing 8 ml methanol, and then vortexed to precipitate protein. Samples are stored at -70° C. overnight. The next day, samples are centrifuged at 200×g for 15 minutes at 4° C. to pellet the precipitate. Samples are dried in a Savant speed vac concentrator, reconstituted to original volume with ice cold RIA or ELISA buffer, and stored at -70° C. until assayed. The assay for eicosanoids (LTB4, TxB2, and PGE2) is performed as described by the manufacturer of the [^3 H]-RIA kit or ELISA kit (LTB4 -Amersham, TxB2 and PGE2 - Caymen Chemical).
The total eicosanoid level in 2 ml of blood is calculated and reported as ng/10^6 neutrophils. […] Drug effects are expressed as percent change from control values.
Compounds tested in vitro are solubilized in dimethylsulfoxide and diluted 1:10 in 10% bovine serum albumin in phosphate buffer saline resulting in a final dimethylsulfoxide concentration of 0.1% in the blood.

[3] = reference leukotriene antagonists

In the case of `O=C(O)Cc1ccccc1Nc1c(Cl)cccc1Cl` [Diclofenac, reference compound], the “% Inh LTB4” value (LTB4; 10 mg/kg p.o.) is reported as 0%.
In the case of `O=C(O)Cc1ccc(-c2ccc(OCc3ccc4ccccc4n3)cc2)c(F)c1` [Example 2, 2-Fluoro-4'-(2-quinolinylmethoxy)-[1,1'-biphenyl]-4-acetic acid], the “% Inhibition of LTB4 Synthesis” value (LTB4; 25 mg/kg p.o.) is reported as 34%, the Kb ([1]; 1 × 10^-5 M) is reported as 631 nM and the “% Inhibition of LTB4” value ([2]; at 25 μM) is reported as 5%.
In the case of `O=C(O)CCc1nc(-c2ccc(OCc3ccc4ccccc4n3)cc2)c(-c2ccccc2)o1` [Example 5, 5-Phenyl-4-[4-(2-Quinolinylmethoxy)phenyl]-2-oxazole propanoic acid], the Kb ([1]; 1 × 10^-5 M) is reported as 316 nM and the “% Inhibition of LTB4” value ([2]; at 25 μM) is reported as 11%.
`O=C(O)CCc1nc(-c2ccc(OCc3ccc4ccccc4n3)cc2)c(-c2ccccc2)o1` [Example 10] was tested, and the “% Inhibition of LTB4 Synthesis” value (LTB4; 25 mg/kg p.o.) was 65%.
For `O=C(Cc1ccc(-c2ccc(OCc3nc4ccccc4s3)cc2)cc1)NO` [Example 14, N-Hydroxy-4'-(2-benzothiazolylmethoxy)[1,1'-biphenyl]-4-acetamide], the Kb ([1]; 1 × 10^-5 M) was > 7940 nM and the “% Inhibition of LTB4” value ([2]; at 25 μM) was 5%.
For `CC(C)N(O)C(=O)Cc1ccc(-c2ccc(OCc3nc4ccccc4s3)cc2)cc1` [Example 15, N-Hydroxy-N-isopropyl-4'-(2-benzothiazolymethoxy)[1,1'-biphenyl]-4-acetamide], the “% Inhibition of LTB4 Synthesis” value (LTB4; 10 mg/kg p.o.) was 12%, the Kb ([1]; 1 × 10^-5 M) was > 10000 nM and the “% Inhibition of LTB4” value ([2]; at 25 μM) was 77%.
`CC(C(=O)N(C)O)c1ccc(-c2ccc(OCc3nc4ccccc4s3)cc2)cc1` (stereo not drawn) [Example 16, N-Hydroxy-N,α-dimethyl-4'-(2-benzothiazolylmethoxy)[1,1'-biphenyl]-4-acetamide] was tested, and the “% Inhibition of LTB4 Synthesis” value (LTB4; 25 mg/kg p.o.) was 46%, the IC50 [2] was 8300 nM and the “% Inhibition of LTB4” value ([2]; at 25 μM) was 72%.
For `CC(C(=O)N(C)O)c1ccc(-c2ccc(OCc3nc4ccccc4s3)cc2)cc1` (stereo not drawn) [Example 17, N-Hydroxy-N.,a,-dimethyl-4'-(2-benzothiazolylmethoxy)[1,1'-biphenyl]-4-acetamide, sodium salt, methanol solvate], the “% Inhibition of LTB4 Synthesis” value (LTB4; 25 mg/kg p.o.) was 37% and the Kb ([1]; 1 × 10^-5 M) was > 3160 nM.
For `CN(O)C(=O)Cc1ccc(-c2ccc(OCc3csc(-c4ccccc4)n3)cc2)cc1` [Example 18], the “% Inhibition of LTB4 Synthesis” value (LTB4; 25 mg/kg p.o.) was 32%, the Kb ([1]; 1 × 10^-5 M) was > 7940 nM and the IC50 [2] was 500 nM. For the same compound, the “% Inhibition of LTB4” value ([2]; at 25 μM) was 97%.
With `CC(C(=O)N(C)O)c1ccc(-c2ccc(OCc3nc4ccccc4n3C)cc2)cc1` (stereo not drawn) [Example 24, N-Hlydroxy-N,α-dimethyl-4'-[(1-methyl-1H-benzimidazol-2-yl)methoxy]-[1,1'-biphenyl]-4-acetamide, hydrochloride salt] the “% Inhibition of LTB4 Synthesis” value (LTB4; 25 mg/kg p.o.) was 56% and the Kb ([1]; 1 × 10^-5 M) was 1000 nM.
`CN(O)C(=O)C(Cc1csc(-c2ccccc2)n1)c1ccc(-c2ccc(OCc3csc(-c4ccccc4)n3)cc2)cc1` (stereo not drawn) [Example 25] was tested, and the Kb ([1]; 1 × 10^-5 M) was > 7940 nM.
`CN(O)C(=O)Cc1ccc(-c2ccc(OCc3ccccn3)cc2)c(F)c1` [Example 28, 2-Fluoro-N-hyroxy-N-methyl-4'-(2-pyridinylmethoxy)[1,1'-biphenyl]-4-acetamide] was tested, and the Kb ([1]; 1 × 10^-5 M) was > 3980 nM, the IC50 [2] was 2300 nM and the “% Inhibition of LTB4” value ([2]; at 10 μM) was 66%.
With `CN(O)C(=O)Cc1ccc(-c2ccc(OCc3nc4ccccc4n3C)cc2)c(F)c1` [Example 29, 2-[2-Fluoro-4'-(1-methyl-1H-benzimidazol-2-ylmethoxy)biphenyl-4-yl]-N-hydroxy-N-methyl-4-acetamide] the Kb ([1]; 1 × 10^-5 M) was 631 nM, the IC50 [2] was 700 nM and the “% Inhibition of LTB4” value ([2]; at 10 μM) was 74%.
`CN(O)C(=O)Cc1cccc(C(=O)c2ccc(OCc3nc4ccccc4s3)cc2)c1` [Example 30, 2-{3-[4-(Benzothiazol-2-ylmethoxy)-benzoyl]-phenyl}-N-hydroxy-N-methyl-4-acetamide 0,6 ethyl acetate solvate] was tested, and the “% Inhibition of LTB4 Synthesis” value (LTB4; 25 mg/kg p.o.) was 21%, the IC50 [2] was 980 nM and the “% Inhibition of LTB4” value ([2]; at 10 μM) was 96%.
With `CC(=O)N(O)C(C)c1ccc(-c2ccc(OCc3nc4ccccc4s3)cc2)cc1` (stereo not drawn) [Example 34, N-{1-[4'-(Benzothiazol-2-ylmethoxy)-biphenyl4-yl]-ethyl}-N-hydroxy-acetamide] the Kb ([1]; 1 × 10^-5 M) was > 10000 nM and the “% Inhibition of LTB4” value ([2]; at 10 μM) was 36%.
For `CC(c1ccc(-c2ccc(OCc3nc4ccccc4o3)cc2)cc1)N(O)C(N)=O` (stereo not drawn) [Example 35], the Kb ([1]; 1 × 10^-5 M) was > 5010 nM and the “% Inhibition of LTB4” value ([2]; at 10 μM) was 51%.
With `CC(=O)N(O)C(C)c1ccc(-c2ccc(OCc3nc4ccccc4n3C)cc2)cc1` (stereo not drawn) [Example 37] the Kb ([1]; 1 × 10^-5 M) was > 3160 nM and the “% Inhibition of LTB4” value ([2]; at 10 μM) was 61%.
`CCCc1c(OCCCCc2nnn[nH]2)ccc(C(C)=O)c1O` [Ly-171,883, reference compound] gave a Kb [1, 3] of 36.3 nM.
In the case of `O=S(=O)(Nc1cccc(OCc2ccc3ccccc3n2)c1)C(F)(F)F` [Wy-48,252, reference compound], the Kb [1, 3] is reported as 126 nM.
`CC(C(=O)O)c1cccc(C(=O)c2ccccc2)c1` (stereo not drawn) [ketoprofen, reference compound] was tested, and the “% Inh LTB4” value (LTB4; 10 mg/kg p.o.) was 35%.

Reference: patent US5364944A, “Substituted benzoylbenzene-, biphenyl- and 2-oxazole- alkanoic acid compounds” (American Home Products Corporation, priority 1993, dated 1994)
